Data reported in paper PMC3525792 (Bioorganic & medicinal chemistry letters, 2012).

Assays:
SERT = settings: read-out: SERT binding Ki; cited from earlier work
fluorescent properties = format: physicochemical
[1] = substrate: NCCc1ccc(O)c(O)c1; test: cells, lysate or membranes; settings: other: substrate KM, determined in parallel; mean [SE interval]

In the case of `CN(C)CCCC1(c2ccc(F)cc2)OCc2cc(-c3cccc(N)c3)ccc21` (stereo not shown) [compound 3], the Ki (SERT) is given as 10.4 nM.

Molecule `CCN(CC)c1ccc2c(-c3ccc(S(=O)(=O)NCCCCCC(=O)NCCC(=O)Nc4cccc(-c5ccc6c(c5)COC6(CCCN(C)C)c5ccc(F)cc5)c4)cc3S(=O)(=O)[O-])c3ccc(=[N+](CC)CC)cc-3oc2c1` (stereo not shown) [compound 8] has a maximal emission wavelength (fluorescent properties) of 592 nm and a maximal excitation wavelength (fluorescent properties) of 570 nm.

B1: hDAT (Homo sapiens) (protein)
chain: MSKSKCSVGLMSSVVAPAKEPNAVGPKEVELILVKEQNGVQLTSSTLTNPRQSPVEAQDRETWGKKIDFLLSVIGFAVDLANVWRFPYLCYKNGGGAFLVPYLLFMVIAGMPLFYMELALGQFNREGAAGVWKICPILKGVGFTVILISLYVGFFYNVIIAWALHYLFSSFTTELPWIHCNNSWNSPNCSDAHPGDSSGDSSGLNDTFGTTPAAEYFERGVLHLHQSHGIDDLGPPRWQLTACLVLVIVLLYFSLWKGVKTSGKVVWITATMPYVVLTALLLRGVTLPGAIDGIRAYLSVDFYRLCEASVWIDAATQVCFSLGVGFGVLIAFSSYNKFTNNCYRDAIVTTSINSLTSFSSGFVVFSFLGYMAQKHSVPIGDVAKDGPGLIFIIYPEAIATLPLSSAWAVVFFIMLLTLGIDSAMGGMESVITGLIDEFQLLHRHRELFTLFIVLATFLLSLFCVTNGGIYVFTLLDHFAAGTSILFGVLIEAIGVAWFYGVGQFSDDIQQMTGQRPSLYWRLCWKLVSPCFLLFVVVVSIVTFRPPHYGAYIFPDWANALGWVIATSSMAMVPIYAAYKFCSLPGSFREKLAYAIAPEKDRELVDRGEVRQFTLRHWLKV
For B1, the Km [1] was 1010[909;1120] nM.
